The target in data set [1] is T1, Protein cereblon/Programmed cell death 1 ligand 1 (Mus musculus) (UniProt Q9EP73+Q8C7D2). Put plainly: PROTAC activity at CRBN/PD-L1 in mouse 4T1 cells assessed as protein degradation at 1.25 to 20 uM incubated for 24 hrs by Western blot analysis. Conditions: dose 1.25-20 µM. In kind it is cell-based. In general terms: Immunoblotting shows a protein as a band on a membrane.

The test system of data set [2] is 4T1. Nature of the data set: Antitumor activity against mouse 4T1 cells allografted in BALB/c mouse assessed as reduction in tumor weight at 10 mg/kg, ip qd for 15 days. In kind it is functional, organism-based. Conditions: time 15.0 day.
Data set [3] relates to 4T1. Put plainly: Antitumor activity against mouse 4T1 cells allografted in BALB/c mouse assessed as reduction in tumor volume at 10 mg/kg, ip qd for 15 days. The format is functional, organism-based. The note with it: time 15.0 day.
Data set [4] deals with 4T1. Put plainly: Antitumor activity against mouse 4T1 cells assessed as decrease in cell viability incubated for 24 hrs by LDH assay. The format is functional, cell-based.
Data set [5] has as its target T1, Protein cereblon/Programmed cell death 1 ligand 1 (Mus musculus). Nature of the data set: PROTAC activity at CRBN/PD-L1 in mouse 4T1 cells at 0.156 to 5 uM incubated for 24 hrs by Western blot analysis. The format is cell-based. Conditions: dose 0.156-5 µM.
Data set [6] is described as follows: Cytotoxicity against BALB/c mouse PBMC cells at <=0.312 uM incubated for 48 hrs by MTT assay. In kind it is toxicity, cell-based. (In general: Tetrazolium assays rely on reduction of a dye to a coloured formazan, in cell work by metabolically active cells.)

Consider four molecules from ChEMBL document CHEMBL5500406, “Discovery of Novel Proteolysis-Targeting Chimera Molecules as Degraders of Programmed Cell Death-Ligand 1 for Breast Cancer Therapy” (J Med Chem, 2024).

Active and inactive are the calls of the source. No cut-off for these calls is given here.

T1 sequence (Q8C7D2 whole entry partner): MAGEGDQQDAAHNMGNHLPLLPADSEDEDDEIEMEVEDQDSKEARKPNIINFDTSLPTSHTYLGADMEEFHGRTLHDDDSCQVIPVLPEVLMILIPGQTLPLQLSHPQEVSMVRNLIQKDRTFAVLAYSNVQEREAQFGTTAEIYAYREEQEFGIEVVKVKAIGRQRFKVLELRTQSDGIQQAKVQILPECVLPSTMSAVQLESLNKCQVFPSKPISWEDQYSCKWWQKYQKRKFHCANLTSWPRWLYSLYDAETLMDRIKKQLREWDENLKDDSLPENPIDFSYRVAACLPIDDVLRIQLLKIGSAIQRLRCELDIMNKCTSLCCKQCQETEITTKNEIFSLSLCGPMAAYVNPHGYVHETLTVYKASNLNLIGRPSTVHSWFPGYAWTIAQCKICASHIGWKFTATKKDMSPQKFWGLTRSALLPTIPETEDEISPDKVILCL
T1 sequence (Q9EP73 19-290 limits assumed): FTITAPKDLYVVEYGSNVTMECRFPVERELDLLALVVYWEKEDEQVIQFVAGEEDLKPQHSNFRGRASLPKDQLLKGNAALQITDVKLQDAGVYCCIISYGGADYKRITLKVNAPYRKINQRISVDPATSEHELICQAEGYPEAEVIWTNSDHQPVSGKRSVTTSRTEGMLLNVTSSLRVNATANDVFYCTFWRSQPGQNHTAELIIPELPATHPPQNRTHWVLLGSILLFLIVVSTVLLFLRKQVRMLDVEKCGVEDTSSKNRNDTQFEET

Take `COc1nc(OCc2cccc(-c3ccccc3)c2C)ccc1CNCCNC(=O)CCCCCCNC(=O)COc1ccc(C2CCC(=O)NC2=O)cc1` (configuration not stated): the result in data set [1] was Active. With `CC(=O)O[C@H]1C(=O)[C@@]2(C)[C@H]([C@H](OC(=O)c3ccccc3)[C@]3(O)C[C@H](OC(=O)[C@H](O)[C@@H](NC(=O)c4ccccc4)c4ccccc4)C(C)=C1C3(C)C)[C@]1(OC(C)=O)CO[C@@H]1C[C@@H]2O`, the outcome with 4T1 [2] and with 4T1 [3] was Active. With `COc1nc(OCc2cccc(-c3ccccc3)c2C)ccc1CNCCNC(C)=O.Cl`, the result in the data set on 4T1 [4] was Active. In data set [5], the result was inactive. Besides, the Activity entry in data set [6] is listed as “Non-Toxic”. As to `COc1nc(OCc2cccc(-c3ccccc3)c2C)ccc1CNCCNC(=O)CCCCCCCNC(=O)COc1ccc(C2CCC(=O)NC2=O)cc1` (configuration not stated), the outcome in data set [1] was Active.
